Residues, ends and D or L forms follow the SMILES beside them.
Assays:
[1] = tested on: MDA-MB-231 and HCT116 cell lines; assay: Growth inhibition screen, 3 day exposure, relative DNA content; conditions: 72 h; for inhibition at 1 µM: read-out: Drug Effect (avg) (1 μM); for inhibition at 10 µM: read-out: Drug Effect (avg) (10 μM)
hRRM1 [2] = molecular target: T1, hRRM1 (Homo sapiens, UniProt P23921); assay: Tryptophan fluorescence quenching of hRRM1 at fixed ligand concentration; conditions: ligand 50 μM; hRRM1 0.1 mg/mL; excitation 295 nm
T1 sequence (P23921 1-792): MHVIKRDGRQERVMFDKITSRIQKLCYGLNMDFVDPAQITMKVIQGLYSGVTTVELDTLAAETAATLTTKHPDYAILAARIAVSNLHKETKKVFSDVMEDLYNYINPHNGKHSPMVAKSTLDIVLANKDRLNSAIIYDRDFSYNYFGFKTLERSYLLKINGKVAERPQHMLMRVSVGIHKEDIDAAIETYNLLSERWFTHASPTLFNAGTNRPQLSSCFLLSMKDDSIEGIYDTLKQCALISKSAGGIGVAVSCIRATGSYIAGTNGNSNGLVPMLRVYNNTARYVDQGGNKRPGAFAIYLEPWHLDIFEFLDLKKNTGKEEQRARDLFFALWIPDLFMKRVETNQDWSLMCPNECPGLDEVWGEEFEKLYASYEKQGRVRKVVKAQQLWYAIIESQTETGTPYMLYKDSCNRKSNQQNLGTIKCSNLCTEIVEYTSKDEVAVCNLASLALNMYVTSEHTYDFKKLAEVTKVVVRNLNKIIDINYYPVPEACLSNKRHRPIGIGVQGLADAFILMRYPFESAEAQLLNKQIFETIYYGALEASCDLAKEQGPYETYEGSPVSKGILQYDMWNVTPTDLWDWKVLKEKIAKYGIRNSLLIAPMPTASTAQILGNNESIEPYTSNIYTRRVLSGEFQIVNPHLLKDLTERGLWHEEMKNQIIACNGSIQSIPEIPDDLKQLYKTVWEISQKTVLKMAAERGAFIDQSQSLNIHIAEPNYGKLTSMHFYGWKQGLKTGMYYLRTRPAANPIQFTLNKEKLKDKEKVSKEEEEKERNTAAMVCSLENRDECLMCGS

hRRM1 [3] = molecular target: T1, hRRM1; assay: Gel filtration chromatography of hRRM1 oligomeric state; conditions: 50 μM dATP alone

SMILES | inhibition at 1 µM [1] [%] | inhibition at 10 µM [1] [%] | % Fluorescence quenching (hRRM1 [2]) | hexamer to dimer ratio based on integration of the peaks (hRRM1 [3])
OC(COc1ccc(OCC(O)CN2CCN(C3c4ccccc4-c4ccccc43)CC2)cc1)CN1CCN(C2c3ccccc3-c3ccccc32)CC1 (stereo not shown) [Compound 1] | -39.6 | 88 |  | 
CCOC(=O)C(NC(=O)CN[C@H]1CCCc2sccc21)C(=O)OCC [Compound 2] | -19.9 | 53.1 |  | 
CCCCCCCCCCCCCCNC(=O)[C@@H](N)CCN [Compound 3] | 7.2 | 69 |  | 
CCC(C)(C)c1ccc(OCCCCNC(=O)c2cc(Oc3ccc([N+](=O)[O-])cc3)c3ccccc3c2O)c(C(C)(C)CC)c1 [Compound 5] | 3.8 | 39.8 |  | 
CCCOc1ccc(C(=O)OCCN(CC)CC)cc1NS(=O)(=O)/C=C/c1ccccc1 [Compound 6] | -3.3 | 4.3 |  | 
CC(NCCCCCO)c1cc(OCc2ccccc2)cc(OCc2ccccc2)c1 (stereo not shown) [Compound 8] | -7.6 | 3.6 |  | 
CCOC(=O)C[C@@H](CC(=O)NCCN[C@H](C)c1ccc(O)c(C(=O)OC)c1)OC(C)=O [Compound 9] | 9.8 | 9.6 |  | 
CCCCCCCCCCCCCCCC(=O)N[C@@H](CCCCN)C(=O)N[C@@H](CCCCN)C(=O)OC [Compound 10] | -21.9 | -8.9 |  | 
CC(C)C[C@H](NC(=O)[C@@H]1CCCN1C(=O)[C@H](Cc1cnc[nH]1)NC(=O)[C@@H](NC(=O)[C@H](Cc1ccc(O)cc1)NC(=O)[C@@H](NC(=O)[C@@H](N)CCCNC(=N)N)C(C)C)C(C)C)C(=O)O [Compound 100207] (H-RVYVHPL-OH) |  |  | No tryptophan fluorescence quenching | 
CC(C)=CCC/C(C)=C/CNC(=O)CNC(c1ccc[nH]1)C(F)(F)F (stereo not shown) [Compound 184612] |  |  | No tryptophan fluorescence quenching | 
Nc1ncnc2c1ncn2[C@H]1C[C@H](O)[C@@H](COP(=O)(O)OP(=O)(O)OP(=O)(O)O)O1 [dATP, deoxyadenosine 5′-triphosphate] |  |  |  | approximately 3 fold

Source: publication PMC4751996 (Journal of medicinal chemistry, 2015)
